# Reference: patent US20040106663A1, “Inhibitors of fungal invasion” (priority 2002, published 2004)
# “And” between values parts separate entries of the source, which are not always exact repeats. Identical values can stand only once. Marks after values point to notes of the source that are not given here.
# Key:
# C. albicans = C. albicans overnight growth inhibition; type: cell-based, Candida albicans; set-up: concentration or dose not given beside the values
# [1] = system: logarithmic phase C. albicans (MC295) containing HWP1-lacZ; assay: microbe, parasite or virus in culture; type: cell-based; conditions: Candida albicans, read-out: C. albicans LOG IC50, logarithmic phase growth invasion assay (converted)
# [2] = system: stationary phase C. albicans (MC295) containing HWP1-lacZ; assay: microbe, parasite or virus in culture; type: cell-based, Candida albicans; conditions: Candida albicans, read-out: C. albicans STAT IC50, stationary phase growth invasion assay
# C. albicans (MC303) = assay: C. albicans morphology assay (hyphae scored 1-5); conditions: invasion morphology phenotype, test compound at 10 μM, scale 1-5
# Protocol: In this assay, described in greater detail below, the morphology of cells was assessed and scored on a 1-5 scale. A score of 1 was assigned to non-hyphal cells, “yeast-like” cells and budding cells, and a score of 5 was assigned to cells having many, relatively long (wild-type) hyphae.
# A frozen stock culture was prepared by streaking C. albicans (MC303: ura3 Δ:: imm434/ura3Δ:: imm434 arg4::hisG/arg4::hisG ade2:: URA3:.pTEF1-lacZ/ADE2 hisl::hisG/HIS1 gal1::ARG4/GAL1) cells on a YPD agar plate and grown at 30° C. for 14-18 h. An isolated colony was added to 5 mL of YPD broth and grown on a roller drum (60 rpm) for 14-18 h at 30° C. Next, 600 μL of culture were aliquotted into 1 mL of 25% glycerol, and the tubes are stored at −80° C.
# Frozen MC303 C. albicans cell stock was struck for isolation of a single colony using a sterile loop on a YPD agar plate and grown at 30° C. for 14-18 h. A single colony was inoculated into 5 mL of YPD in a test tube and grown on a roller drum (60 rpm) for 2 days at 30° C. to late stationary phase (OD600˜30). For the assay, this stock was diluted to 2.5×10^5 cells/mL to make a 10× stock. Next, 10 μL of this cell stock was added to 80 μL of Inducing Media and 10 μL of 10× compound stock or DMSO in a Coming, tissue-culture treated, flat-bottom, microtiter plate. The plate was incubated at 37° C. for 24 h. Next, 10 μL of formaldehyde (37%) was added to each well and the cells were fixed for 10 min. The liquid was gently decanted from the plate and each well was examined under a microscope. Each well was photographed and observed cells are scored on a scale of 1-5. […] A 1 indicates cells are non-hyphal with only “yeast-like” cells and budding cells.
# Scores of 2, 3, and 4 indicate shorter length or reduced quantity of hyphae when compared with WT (2 being very near non-hyphal and 4 being close to WT).
# [3] = system: HepG2 human hepatoma cells; conditions: 4 h
# Protocol: Mammalian Cell Toxicity Assay
# To investigate the toxicity of Compound I for mammalian cells, human hepatoma cell line HepG2 were exposed to Compound I and the (LD50) was determined. Briefly, HepG2 human hepatoma cells (American Type Culture Collection, Bethesda Md.) were plated at 1×10^5 cells/well in tissue culture treated 96 well plates and incubated at 5% CO2, 37° C. for 18 h prior to initiation of the assay. The compound stocks at 100 mM in DMSO were added to DM (defined media, media without serum with added insulin, selenium and transferrin) at an initial concentration of 1000 μM and serially diluted 1 to 3 in DM in a 96 well plate. For 20 μL of a test solution, 3.5 μL sample is added to 346.5 μL media for an initial concentration of 1000 μM. These dilutions are added to the cells at final sample concentrations between 0.5 and 1000 μM (<1% DMSO). Controls included: media only (negative control) and 0.1% Triton-X (positive control). Control drugs (tamoxifen and 2-thiouracil) were also used to verify each assay. The samples were incubated at 37° C. in humidified 5% CO2 atmosphere for 4 h.
# The plate was read directly on the Tecan Spectrafluor Plus reader in the fluorescent mode at excitation 530 nm and emission 595 nm. The blank was subtracted from the total fluorescence to give the net fluorescence for that well. This total was compared to the control in the absence of the compound. An LD50 (concentration at 50% of lethal dose) is calculated as the concentration that leads to a response of 50% compared to the control cells. Thus, cytotoxicity is measured as percent of inhibition of cell viability as determined by the Alamar Blue assay.
Compound,C. albicans Overnight Growth Inhibition (C. albicans) [%],IC50 [1] [nM],IC50 [2] [µM],C. albicans Phenotype Rating (C. albicans (MC303)),AFDD Mammalian Cytotoxicity LD50 [3] [µM]
CCCCCc1ccc(S(=O)(=O)Nc2cc(C)on2)cc1,−49.4,9.28,1.41,4,–
Cc1cc(NS(=O)(=O)c2ccc(OCC3CC3)cc2)no1,−7.3,51,11.5,5,–
CCCCCCc1ccc(S(=O)(=O)Nc2cc(C)on2)cc1,32.5,9.9,2.87,2 and 4 and 5,449.1
Cc1cc(NS(=O)(=O)c2ccc(-c3ccccc3)cc2)no1,19.5,89.3,–,2 and 5,>1000
Cc1cc(NC(=O)Nc2ccc(S(=O)(=O)Nc3cc(C)on3)cc2)no1,−25.4,5160,> 20,5,–
Cc1cc(NS(=O)(=O)c2ccc(-c3ccccc3F)cc2)no1,−4.3,350,> 20,5,–
Cc1cc(NS(=O)(=O)c2ccc(-c3ccc(F)cc3F)s2)no1,−0.6,3360,> 20,5,–
Cc1cc(NS(=O)(=O)c2ccc(CCCCCCCCCCO)cc2)no1,71.0,17300,> 20,5,–
CCCCOc1ccc(S(=O)(=O)Nc2cc(C)on2)cc1,−6.4,42,11.7,–,>1000
Cc1cc(NS(=O)(=O)c2ccc(-c3cc(Cl)cc(Cl)c3)cc2)no1,−3.1,1480,> 20,5,–
CCc1ccc(S(=O)(=O)Nc2cc(C)on2)cc1,−78.9,1610,> 20,4,>1000
Cc1cc(NS(=O)(=O)c2ccc(-c3ccc(C)s3)cc2)no1,22.4,50,4.91,–,–
Cc1cc(NS(=O)(=O)c2ccc(-c3ccco3)cc2)no1,23.9,39,> 20,4,>1000
CCCCC(F)(F)c1ccc(S(=O)(=O)Nc2cc(C)on2)cc1,−1.6,2020,> 20,5,–
Cc1cc(NS(=O)(=O)c2ccc(-c3cc4ccccc4o3)cc2)no1,23.8,320,2.61,2*,–
CCc1ccc(-c2ccc(S(=O)(=O)Nc3cc(C)on3)cc2)cc1,−14.4,115,> 20,5,–
CCCN(CCC)c1ccc(S(=O)(=O)Nc2cc(C)on2)cc1,−2.8,2790,> 20,5,–
Cc1cc(NS(=O)(=O)c2ccc(-n3cccn3)cc2)no1,−13.3,2100,> 20,5,–
Cc1cc(NS(=O)(=O)c2ccc(-c3ccc4c(c3)OCO4)cc2)no1,–,674,> 20,–,>1000
Cc1cc(NS(=O)(=O)c2ccc(-c3cccc(Cl)c3)cc2)no1,7.7,110,> 20,5,–
Cc1cc(NS(=O)(=O)c2ccc(N3CCCC3)cc2)no1,4.4,91,3.73,4 and 5,–
